Results on 6 compounds are retold here after paper PMC3082441 (Journal of medicinal chemistry, 2008).

The target in test [1] is AC1 (Homo sapiens, UniProt Q08828). As to conditions: 100 μM compound; forskolin-stimulated; transfected HEK293T lysate.
Test [2] concerns endogenous tmACs expressed in HEK293T cells. The format is biochemical, mammalian. As to conditions: 100 μM compound.
Test [3] has as its target T1, CyaC (Limnospira platensis, UniProt O32393).
Test [4] addresses T2, AC9 (Homo sapiens, UniProt O60503).
T2 sequence (O60503 1-1353): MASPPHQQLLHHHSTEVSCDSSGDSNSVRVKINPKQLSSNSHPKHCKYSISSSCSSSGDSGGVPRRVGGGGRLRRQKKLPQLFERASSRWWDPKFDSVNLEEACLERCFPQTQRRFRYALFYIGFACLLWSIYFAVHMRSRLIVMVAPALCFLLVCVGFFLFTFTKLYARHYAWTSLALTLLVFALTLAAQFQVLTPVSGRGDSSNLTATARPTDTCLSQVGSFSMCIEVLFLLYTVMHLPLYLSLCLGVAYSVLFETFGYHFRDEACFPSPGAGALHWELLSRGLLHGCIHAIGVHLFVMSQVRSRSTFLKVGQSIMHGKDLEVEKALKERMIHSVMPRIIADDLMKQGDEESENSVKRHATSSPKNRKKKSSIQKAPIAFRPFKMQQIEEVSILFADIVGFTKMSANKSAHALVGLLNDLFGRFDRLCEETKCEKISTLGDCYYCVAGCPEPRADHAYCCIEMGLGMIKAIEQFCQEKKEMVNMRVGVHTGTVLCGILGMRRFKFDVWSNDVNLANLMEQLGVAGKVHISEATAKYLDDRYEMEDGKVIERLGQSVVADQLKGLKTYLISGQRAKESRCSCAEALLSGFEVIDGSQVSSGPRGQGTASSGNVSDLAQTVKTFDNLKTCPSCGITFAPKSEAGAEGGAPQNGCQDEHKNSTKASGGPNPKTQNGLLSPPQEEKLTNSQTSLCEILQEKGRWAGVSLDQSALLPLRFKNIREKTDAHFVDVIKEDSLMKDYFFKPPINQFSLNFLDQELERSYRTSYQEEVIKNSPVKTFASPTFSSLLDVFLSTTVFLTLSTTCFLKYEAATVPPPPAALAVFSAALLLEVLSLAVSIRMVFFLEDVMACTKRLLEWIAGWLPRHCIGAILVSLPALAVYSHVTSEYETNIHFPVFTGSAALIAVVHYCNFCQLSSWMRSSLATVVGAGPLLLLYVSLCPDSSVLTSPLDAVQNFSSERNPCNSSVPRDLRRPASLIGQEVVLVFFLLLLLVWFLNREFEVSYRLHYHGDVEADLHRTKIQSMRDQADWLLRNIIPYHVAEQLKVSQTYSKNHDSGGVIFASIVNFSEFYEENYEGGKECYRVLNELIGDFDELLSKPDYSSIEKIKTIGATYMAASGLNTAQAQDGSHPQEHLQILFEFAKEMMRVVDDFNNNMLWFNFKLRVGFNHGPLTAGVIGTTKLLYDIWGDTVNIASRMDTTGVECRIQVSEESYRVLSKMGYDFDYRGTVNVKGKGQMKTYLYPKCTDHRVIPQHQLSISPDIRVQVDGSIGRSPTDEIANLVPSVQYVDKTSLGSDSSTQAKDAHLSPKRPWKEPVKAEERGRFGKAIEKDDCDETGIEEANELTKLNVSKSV
As to conditions: 100 μM compound, transfected HEK293T lysate.

Test [5] deals with AC5 (Homo sapiens, UniProt O95622). As to conditions: 100 μM compound; forskolin-stimulated; transfected HEK293T lysate.
Test [6] has as its target T1, CyaC. As to conditions: cited from earlier work.
Test [7] concerns the target T3, mammalian sAC (Homo sapiens, UniProt Q96PN6).
T3 sequence (Q96PN6 1-469): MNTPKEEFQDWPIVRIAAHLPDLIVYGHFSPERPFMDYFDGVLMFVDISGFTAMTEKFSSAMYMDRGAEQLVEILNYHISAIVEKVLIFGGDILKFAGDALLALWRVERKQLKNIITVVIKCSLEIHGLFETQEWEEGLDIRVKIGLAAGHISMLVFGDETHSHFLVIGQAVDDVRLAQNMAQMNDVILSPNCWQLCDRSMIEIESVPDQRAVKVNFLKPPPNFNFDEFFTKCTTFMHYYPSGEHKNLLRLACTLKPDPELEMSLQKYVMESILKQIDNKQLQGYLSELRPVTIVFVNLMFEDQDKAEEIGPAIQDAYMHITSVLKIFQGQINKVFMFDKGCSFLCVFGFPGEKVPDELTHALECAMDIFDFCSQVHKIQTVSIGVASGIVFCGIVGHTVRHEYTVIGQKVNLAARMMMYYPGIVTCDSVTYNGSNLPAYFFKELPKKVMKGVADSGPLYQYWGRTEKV
Kind of test: Activity assay with purified, recombinant mammalian sAC. The format is biochemical, human or rat. As to conditions: dose-response curve.

The target in test [8] is AC2 (Homo sapiens, UniProt Q08462).
Test [9] relates to human sAC. As to conditions: read-out: reported IC50 against human sAC; cited from earlier work.
Test [10] has as its target T1, CyaC. Kind of test: biochemical. As to conditions: read-out: IC50 against CyaC in vitro (estimated).

The structures appear in SMILES notation. Read-outs that look alike come from different tables or passages of the source.

T1 sequence (O32393 998-1202 limits assumed): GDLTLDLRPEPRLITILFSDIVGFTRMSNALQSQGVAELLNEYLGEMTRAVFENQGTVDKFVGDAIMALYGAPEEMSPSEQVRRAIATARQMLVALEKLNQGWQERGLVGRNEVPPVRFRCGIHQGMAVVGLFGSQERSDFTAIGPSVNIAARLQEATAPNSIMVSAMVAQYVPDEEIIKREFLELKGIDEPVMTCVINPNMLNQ
Sequence of AC2 (Q08462 whole entry): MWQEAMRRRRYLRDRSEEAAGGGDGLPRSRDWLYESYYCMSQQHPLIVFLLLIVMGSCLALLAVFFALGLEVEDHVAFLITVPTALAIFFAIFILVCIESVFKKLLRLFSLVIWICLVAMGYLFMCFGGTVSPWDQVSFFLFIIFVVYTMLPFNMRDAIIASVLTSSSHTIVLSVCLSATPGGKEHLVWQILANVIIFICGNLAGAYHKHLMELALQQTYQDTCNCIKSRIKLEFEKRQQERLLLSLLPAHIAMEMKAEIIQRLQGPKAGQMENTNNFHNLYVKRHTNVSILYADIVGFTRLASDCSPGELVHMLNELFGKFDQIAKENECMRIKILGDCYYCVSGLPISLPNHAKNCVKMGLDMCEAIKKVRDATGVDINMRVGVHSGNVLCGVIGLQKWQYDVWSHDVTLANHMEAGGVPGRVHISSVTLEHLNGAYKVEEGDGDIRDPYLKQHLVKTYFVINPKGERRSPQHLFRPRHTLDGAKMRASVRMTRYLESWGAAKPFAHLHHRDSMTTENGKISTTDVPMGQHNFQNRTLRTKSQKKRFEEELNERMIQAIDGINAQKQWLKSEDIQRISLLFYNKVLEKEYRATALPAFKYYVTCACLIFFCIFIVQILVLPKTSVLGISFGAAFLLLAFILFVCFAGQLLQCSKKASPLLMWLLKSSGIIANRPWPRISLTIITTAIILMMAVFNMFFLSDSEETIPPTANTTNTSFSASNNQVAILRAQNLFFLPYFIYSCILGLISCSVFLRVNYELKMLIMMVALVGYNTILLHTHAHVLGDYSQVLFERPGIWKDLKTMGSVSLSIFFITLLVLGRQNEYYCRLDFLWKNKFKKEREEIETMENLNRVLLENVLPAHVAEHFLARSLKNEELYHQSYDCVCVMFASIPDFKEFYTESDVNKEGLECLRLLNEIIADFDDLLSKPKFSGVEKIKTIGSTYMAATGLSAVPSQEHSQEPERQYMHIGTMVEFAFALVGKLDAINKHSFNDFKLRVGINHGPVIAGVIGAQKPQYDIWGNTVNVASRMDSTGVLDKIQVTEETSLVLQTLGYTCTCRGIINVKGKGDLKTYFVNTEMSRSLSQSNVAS
Sequence of AC1 (Q08828 whole entry): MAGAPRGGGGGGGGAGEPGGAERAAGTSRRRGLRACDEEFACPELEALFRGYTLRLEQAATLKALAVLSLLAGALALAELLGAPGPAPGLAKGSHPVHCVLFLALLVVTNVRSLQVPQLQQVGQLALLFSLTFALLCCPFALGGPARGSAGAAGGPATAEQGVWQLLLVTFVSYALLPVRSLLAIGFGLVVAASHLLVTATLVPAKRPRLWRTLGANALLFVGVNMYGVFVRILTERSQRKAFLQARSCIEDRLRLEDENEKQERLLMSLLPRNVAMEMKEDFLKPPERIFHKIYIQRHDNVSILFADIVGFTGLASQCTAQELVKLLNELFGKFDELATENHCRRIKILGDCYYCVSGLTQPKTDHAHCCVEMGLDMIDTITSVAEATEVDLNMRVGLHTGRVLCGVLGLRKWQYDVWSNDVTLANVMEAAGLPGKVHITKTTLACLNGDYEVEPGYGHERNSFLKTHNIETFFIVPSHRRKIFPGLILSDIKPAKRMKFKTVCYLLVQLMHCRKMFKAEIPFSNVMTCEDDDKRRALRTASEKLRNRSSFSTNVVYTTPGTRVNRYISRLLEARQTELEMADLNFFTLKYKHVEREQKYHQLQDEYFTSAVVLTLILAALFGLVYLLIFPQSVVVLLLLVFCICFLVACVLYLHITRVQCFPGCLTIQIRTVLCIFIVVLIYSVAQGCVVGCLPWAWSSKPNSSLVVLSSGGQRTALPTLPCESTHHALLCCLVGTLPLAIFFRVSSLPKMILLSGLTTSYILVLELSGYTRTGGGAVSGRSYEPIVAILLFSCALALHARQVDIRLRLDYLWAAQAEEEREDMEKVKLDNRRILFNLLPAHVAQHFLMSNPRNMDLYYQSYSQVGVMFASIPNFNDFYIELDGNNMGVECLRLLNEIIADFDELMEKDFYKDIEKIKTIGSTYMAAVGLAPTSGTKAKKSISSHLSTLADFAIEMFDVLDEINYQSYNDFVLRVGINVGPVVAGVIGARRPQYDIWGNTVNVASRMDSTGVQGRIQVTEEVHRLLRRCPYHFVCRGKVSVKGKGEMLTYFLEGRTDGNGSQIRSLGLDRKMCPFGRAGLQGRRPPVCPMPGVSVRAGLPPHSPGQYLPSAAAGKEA
Sequence of AC5 (O95622 whole entry, species assumed): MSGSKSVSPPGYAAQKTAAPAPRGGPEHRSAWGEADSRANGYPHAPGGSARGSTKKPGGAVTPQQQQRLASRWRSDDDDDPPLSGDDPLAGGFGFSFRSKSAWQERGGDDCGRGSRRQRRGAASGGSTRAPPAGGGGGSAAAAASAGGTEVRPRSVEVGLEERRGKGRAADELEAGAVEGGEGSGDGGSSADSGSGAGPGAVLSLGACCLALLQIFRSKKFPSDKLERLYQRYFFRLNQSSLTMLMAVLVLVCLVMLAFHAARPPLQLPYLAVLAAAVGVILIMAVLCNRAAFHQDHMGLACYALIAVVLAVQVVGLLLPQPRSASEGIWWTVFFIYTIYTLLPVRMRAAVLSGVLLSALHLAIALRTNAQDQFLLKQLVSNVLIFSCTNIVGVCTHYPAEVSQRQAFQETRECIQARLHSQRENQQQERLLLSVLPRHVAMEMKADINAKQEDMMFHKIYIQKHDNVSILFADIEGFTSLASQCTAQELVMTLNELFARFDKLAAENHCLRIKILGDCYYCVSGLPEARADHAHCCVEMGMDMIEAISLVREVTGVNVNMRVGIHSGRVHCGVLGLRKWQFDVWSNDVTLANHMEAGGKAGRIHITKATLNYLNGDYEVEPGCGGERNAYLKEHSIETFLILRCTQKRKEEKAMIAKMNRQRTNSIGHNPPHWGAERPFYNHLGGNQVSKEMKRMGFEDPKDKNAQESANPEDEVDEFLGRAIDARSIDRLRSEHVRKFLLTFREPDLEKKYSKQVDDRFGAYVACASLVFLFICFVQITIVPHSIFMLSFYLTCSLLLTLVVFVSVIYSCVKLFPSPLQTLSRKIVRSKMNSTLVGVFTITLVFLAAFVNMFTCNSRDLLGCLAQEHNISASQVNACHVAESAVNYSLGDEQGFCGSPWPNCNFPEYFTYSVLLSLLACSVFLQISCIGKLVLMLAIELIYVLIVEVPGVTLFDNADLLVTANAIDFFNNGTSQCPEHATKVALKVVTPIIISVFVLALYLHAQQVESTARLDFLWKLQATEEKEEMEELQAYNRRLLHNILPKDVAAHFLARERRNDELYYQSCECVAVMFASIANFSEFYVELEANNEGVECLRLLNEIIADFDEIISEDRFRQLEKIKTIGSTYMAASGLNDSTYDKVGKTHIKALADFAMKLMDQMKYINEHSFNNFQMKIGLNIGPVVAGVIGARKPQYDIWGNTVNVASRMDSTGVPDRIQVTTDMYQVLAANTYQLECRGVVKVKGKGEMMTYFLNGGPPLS

`C[C@]12CC[C@H]3[C@@H](CCC4=CC(=O)CC[C@@]43C)[C@@H]1CC[C@@H]2C(=O)COS(=O)(=O)c1ccc(Br)cc1` [Compound 2, 3,20-dioxopregn-4-en-21-yl 4-bromobenzenesulfonate]: the “Inhibition of AC1 activity” value in test [1] is “did not significantly inhibit”. Besides, the “Inhibition of forskolin-stimulated AC activity in HEK293T whole cell extracts” value in test [2] is recorded as “no significant inhibition”. For the same compound, the “Vmax of CyaC” value in [3] (1 μM inhibitor) turned out to be 0.38 nmol/mg/min; in test [3] ([…] inhibitor) it was 0.29 nmol/mg/min; in test [3] ([…] μM inhibitor) it was 0.08 nmol/mg/min. The “Mode of inhibition with respect to ATP” value in [3] (various substrate concentrations at fixed inhibitor amounts) is given as “noncompetitive inhibitor”. Besides, the “Effect on basal AC9 activity” value in [4] is “did not appreciably affect”. In addition, the “Inhibition of AC5 activity” value in test [5] was “did not significantly inhibit”.

As to `C[C@]12CC[C@@H]3c4cc(O)c(O)cc4CC[C@H]3[C@@H]1CC[C@@H]2O` [Compound 1, 2-hydroxy-17β-estradiol], the “Mode of inhibition with respect to ATP (reported)” value in test [6] is “noncompetitive inhibitor”.

As to `O=C(O)c1cc2c(cc1S(=O)(=O)O)C1C(C3C2C2(Cl)C(Cl)=C(Cl)C3(Cl)C2(Cl)Cl)C2(Cl)C(Cl)=C(Cl)C1(Cl)C2(Cl)Cl` (stereo not drawn) [Compound 3, 1,2,3,4,5,6,7,8,13,13,14,14-dodecachloro-1,4,4a,4b,5,8,8a, 12b-octahydro-11-sulfo-1,4:5,8-dimethanotriphenylene-10-carboxylic acid], the “Inhibition of AC1 activity” value in test [1] is reported as “only moderate inhibition”. Besides, the “Effect on basal AC9 activity” value in [4] is on record as “only moderate inhibition”. For the same compound, the “Hill coefficient for sAC inhibition” value in test [7] came to 2.0. Also, in [8] (100 μM compound, basal, transfected HEK293T lysate), the “Inhibition of basal AC2 activity” value is “only moderate inhibition”. In addition, in test [8] (in the presence of forskolin, data not shown), the “Effect on AC2 in the presence of forskolin” value was “stimulation”. Moreover, the “Inhibition of AC5 activity” value in test [5] is “only moderate inhibition”.

Broadly, the IC50 is the concentration that inhibits the measured activity by half. Consider `C[C@H]1O[C@@H](n2cnc3c(N)ncnc32)C[C@@H]1OP(=O)(O)OP(=O)(O)OP(=O)(O)O` [2′,5′-didesoxy-3′-ATP], for which the IC50 in [9] was 0.7 µM.

With `C[C@H]1[C@H](C)CC[C@]2(C(=O)O)CC[C@]3(C)C(=CC[C@@H]4[C@@]5(C)C[C@@H](O)[C@H](O)[C@@](C)(CO)[C@@H]5[C@H](O)C[C@]43C)[C@H]12` [Compound 8, 2,3,6,23-tetrahydroxyurs-12-en-28-oic acid], in test [10], the potency estimated from few doses was ~100 µM.

Regarding `BrC(c1cccc2ccccc12)c1cccc2ccccc12` [Compound 4, 1-(bromo(1-naphthyl)methyl)naphthalene], the potency estimated from few doses in test [10] is ~200 µM.
